In the NIST ThermoML archive (doi:10.1021/acs.jced.7b00519):
Values joined by “and” are separate entries in the source; they are usually repeats but may differ in a detail not shown here. Equal entries are not always repeated. Numbers after ± are expanded uncertainties.

Conditions: horizontal capillary tube

O [water]
Conditions	surface tension liquid-gas
249.9 K, Metastable liquid	78.88 ± 0.8 mN/m and 78.87 ± 0.8 mN/m
249.91 K, Metastable liquid	78.91 ± 0.8 mN/m
250.79 K, Metastable liquid	78.85 ± 0.8 mN/m
250.8 K, Metastable liquid	78.72 ± 0.78 mN/m
250.81 K, Metastable liquid	78.72 ± 0.78 mN/m
250.82 K, Metastable liquid	78.72 ± 0.78 mN/m and 78.77 ± 0.78 mN/m and 78.69 ± 0.78 mN/m
251.37 K, Metastable liquid	78.69 ± 0.8 mN/m and 78.66 ± 0.8 mN/m
251.39 K, Metastable liquid	78.68 ± 0.8 mN/m
251.91 K, Metastable liquid	78.65 ± 0.8 mN/m
251.92 K, Metastable liquid	78.65 ± 0.8 mN/m
252.81 K, Metastable liquid	78.39 ± 0.78 mN/m
252.82 K, Metastable liquid	78.47 ± 0.78 mN/m
252.86 K, Metastable liquid	78.51 ± 0.8 mN/m and 78.48 ± 0.8 mN/m and 78.47 ± 0.8 mN/m
252.88 K, Metastable liquid	78.38 ± 0.78 mN/m and 78.4 ± 0.78 mN/m and 78.41 ± 0.78 mN/m
253.36 K, Metastable liquid	78.37 ± 0.78 mN/m and 78.4 ± 0.78 mN/m
253.79 K, Metastable liquid	78.34 ± 0.78 mN/m
253.81 K, Metastable liquid	78.27 ± 0.78 mN/m
254.9 K, Metastable liquid	78.3 ± 0.8 mN/m
254.91 K, Metastable liquid	78.28 ± 0.8 mN/m
255.29 K, Metastable liquid	78.03 ± 0.8 mN/m
255.32 K, Metastable liquid	78.13 ± 0.78 mN/m
255.33 K, Metastable liquid	78.15 ± 0.78 mN/m
255.34 K, Metastable liquid	78.07 ± 0.78 mN/m [middle of 4 runs]
255.84 K, Metastable liquid	78.05 ± 0.78 mN/m and 78.06 ± 0.78 mN/m
255.85 K, Metastable liquid	78.07 ± 0.78 mN/m
256.33 K, Metastable liquid	77.91 ± 0.78 mN/m
256.34 K, Metastable liquid	77.97 ± 0.78 mN/m
256.87 K, Metastable liquid	77.86 ± 0.78 mN/m and 77.87 ± 0.78 mN/m
257.83 K, Metastable liquid	77.72 ± 0.78 mN/m
257.84 K, Metastable liquid	77.75 ± 0.78 mN/m
257.87 K, Metastable liquid	77.94 ± 0.8 mN/m
257.88 K, Metastable liquid	77.92 ± 0.8 mN/m
258.8 K, Metastable liquid	77.63 ± 0.78 mN/m
258.81 K, Metastable liquid	77.61 ± 0.78 mN/m
259.3 K, Metastable liquid	77.59 ± 0.78 mN/m and 77.6 ± 0.78 mN/m
259.8 K, Metastable liquid	77.54 ± 0.78 mN/m and 77.5 ± 0.78 mN/m
260.83 K, Metastable liquid	77.35 ± 0.78 mN/m
260.84 K, Metastable liquid	77.36 ± 0.78 mN/m
261.8 K, Metastable liquid	77.24 ± 0.76 mN/m
261.81 K, Metastable liquid	77.2 ± 0.76 mN/m
262.27 K, Metastable liquid	77.23 ± 0.78 mN/m
262.28 K, Metastable liquid	77.21 ± 0.78 mN/m
262.82 K, Metastable liquid	77.04 ± 0.78 mN/m and 77.06 ± 0.78 mN/m
262.83 K, Metastable liquid	77.07 ± 0.78 mN/m
263.26 K, Metastable liquid	77 ± 0.76 mN/m
263.27 K, Metastable liquid	77.01 ± 0.76 mN/m
263.76 K, Metastable liquid	76.93 ± 0.78 mN/m
263.77 K, Metastable liquid	76.91 ± 0.78 mN/m and 76.87 ± 0.78 mN/m
265.74 K, Metastable liquid	76.71 ± 0.78 mN/m
265.75 K, Metastable liquid	76.75 ± 0.78 mN/m
265.76 K, Metastable liquid	76.61 ± 0.76 mN/m and 76.68 ± 0.76 mN/m and 76.64 ± 0.76 mN/m
265.77 K, Metastable liquid	76.6 ± 0.78 mN/m
265.78 K, Metastable liquid	76.61 ± 0.78 mN/m
266.23 K, Metastable liquid	76.6 ± 0.76 mN/m and 76.58 ± 0.76 mN/m
266.74 K, Metastable liquid	76.55 ± 0.76 mN/m and 76.54 ± 0.76 mN/m
268.21 K, Metastable liquid	76.34 ± 0.76 mN/m and 76.3 ± 0.76 mN/m
268.7 K, Metastable liquid	76.22 ± 0.8 mN/m
269.18 K, Metastable liquid	76.23 ± 0.76 mN/m
269.19 K, Metastable liquid	76.24 ± 0.76 mN/m
269.36 K, Metastable liquid	76.19 ± 0.76 mN/m
269.69 K, Metastable liquid	76.1 ± 0.76 mN/m
270.17 K, Metastable liquid	76.05 ± 0.76 mN/m
270.65 K, Metastable liquid	76.02 ± 0.76 mN/m
270.67 K, Metastable liquid	76.02 ± 0.76 mN/m
272.68 K, Metastable liquid	75.72 ± 0.76 mN/m
272.69 K, Metastable liquid	75.75 ± 0.76 mN/m
273.56 K, Metastable liquid	75.62 ± 0.74 mN/m
273.61 K, Metastable liquid	75.56 ± 0.78 mN/m
273.64 K, Metastable liquid	75.58 ± 0.74 mN/m
273.69 K, Metastable liquid	75.61 ± 0.78 mN/m and 75.64 ± 0.78 mN/m
275.62 K, Liquid	75.24 ± 0.76 mN/m
275.63 K, Liquid	75.28 ± 0.76 mN/m and 75.24 ± 0.76 mN/m
276.61 K, Liquid	75.19 ± 0.76 mN/m
276.63 K, Liquid	75.19 ± 0.76 mN/m and 75.16 ± 0.76 mN/m
278.09 K, Liquid	74.96 ± 0.74 mN/m
278.11 K, Liquid	74.98 ± 0.74 mN/m
279.56 K, Liquid	74.68 ± 0.74 mN/m
279.58 K, Liquid	74.74 ± 0.74 mN/m
280.58 K, Liquid	74.59 ± 0.74 mN/m
280.59 K, Liquid	74.56 ± 0.74 mN/m and 74.58 ± 0.74 mN/m
281.55 K, Liquid	74.41 ± 0.74 mN/m
282.06 K, Liquid	74.39 ± 0.74 mN/m and 74.37 ± 0.74 mN/m
283.5 K, Liquid	74.17 ± 0.74 mN/m
283.59 K, Liquid	74.17 ± 0.74 mN/m
283.6 K, Liquid	74.15 ± 0.74 mN/m
283.67 K, Liquid	74.15 ± 0.74 mN/m
284.61 K, Liquid	74.14 ± 0.74 mN/m
284.62 K, Liquid	74.11 ± 0.74 mN/m
292 K, Liquid	72.91 ± 0.74 mN/m and 72.88 ± 0.74 mN/m
293.63 K, Liquid	72.7 ± 0.76 mN/m and 72.67 ± 0.76 mN/m
293.66 K, Liquid	72.67 ± 0.74 mN/m and 72.7 ± 0.74 mN/m
295.63 K, Liquid	72.36 ± 0.74 mN/m
295.65 K, Liquid	72.33 ± 0.74 mN/m
